Reference: ChEMBL document CHEMBL1649383, “Mode of action of epoxyphomalins A and B and characterization of related metabolites from the marine-derived fungus Paraconiothyrium sp” (J Nat Prod, 2010)

How the values were obtained:
Homo sapiens [1] = organism: Homo sapiens; experiment: Inhibition of chymotrypsin like activity of human erythrocyte-derived 20S proteasome after 60 mins by fluorescence assay
Homo sapiens [2] = organism: Homo sapiens; experiment: Inhibition of caspase like activity of human erythrocyte-derived 20S proteasome after 60 mins by fluorescence assay
Homo sapiens [3] = organism: Homo sapiens; experiment: Inhibition of trypsin like activity of human erythrocyte-derived 20S proteasome after 60 mins by fluorescence assay

Measured: Activity

CC1=CC[C@H]2[C@](C)(CO)CCC[C@]2(C)[C@H]1C[C@@]12O[C@@H]1C(=O)C(CO)=C[C@H]2O
active: Homo sapiens [1] Dose-dependent effect | Homo sapiens [2] Dose-dependent effect | Homo sapiens [3] Dose-dependent effect

CC1=C[C@@H](O)[C@]2(C[C@H]3C(C)=CC[C@H]4[C@](C)(CO)CCC[C@]34C)O[C@@H]2C1=O
active: Homo sapiens [1] Dose-dependent effect | Homo sapiens [2] Dose-dependent effect | Homo sapiens [3] Dose-dependent effect
